Reference: the supplement of paper PMC10307832

Key:
Experiment in all cases: relative viability (nuclei count vs DMSO), 5 days (fraction); higher = more cells survive
[1] = compound: C1CNCCC1C2=CC(=NN2)C3=CC=NC=C3 + CS(=O)(=O)CCNCc1ccc(-c2ccc3ncnc(Nc4ccc(OCc5cccc(F)c5)c(Cl)c4)c3c2)o1 [Lapatinib] (partner 2 µM)
Method in brief: (§1)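 Medians of duplicate plates are given as relative viability. That measure is the nuclei count in treated wells divided by the count in vehicle wells. Counts were taken on 4× images of lung cancer cell lines in 1536-well plates, 5 days after pin-tool dosing the day after seeding with one drug alone or a fixed anchor-drug dose plus five library-drug doses (not always all listed) in √10 steps.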

[2] = compound: C1CNCCC1C2=CC(=NN2)C3=CC=NC=C3 + CS(=O)(=O)N1CCN(Cc2cc3nc(-c4cccc5[nH]ncc45)nc(N4CCOCC4)c3s2)CC1 [Pictilisib] (partner 1 µM)
Method in brief: as §1

[3] = compound: C1CNCCC1C2=CC(=NN2)C3=CC=NC=C3 + Cc1nc(Nc2ncc(C(=O)Nc3c(C)cccc3Cl)s2)cc(N2CCN(CCO)CC2)n1 [Dasatinib] (partner 0.075 µM)
Method in brief: as §1

[4] = compound: C[C@@H](N)c1ccc(C(=O)Nc2ccnc3[nH]ccc23)cc1 + CC(=O)Nc1cccc(-n2c(=O)n(C3CC3)c(=O)c3c(Nc4ccc(I)cc4F)n(C)c(=O)c(C)c32)c1 [Trametinib] (partner 0.02 µM)
Method in brief: as §1

## UMC-11
[1]; first compound 0.08 µM
  relative viability: 0.73
[1]; first compound 0.8 µM
  relative viability: 1.23
[1]; first compound 2.53 µM
  relative viability: 1.05
[1]; first compound 8 µM
  relative viability: 1.04
[2]; first compound 0.08 µM
  relative viability: 0.698
[2]; first compound 0.8 µM
  relative viability: 1.16
[2]; first compound 2.53 µM
  relative viability: 0.97
[2]; first compound 8 µM
  relative viability: 0.822
[3]; first compound 0.08 µM
  relative viability: 0.498
[3]; first compound 0.8 µM
  relative viability: 0.543
[3]; first compound 2.53 µM
  relative viability: 0.488
[3]; first compound 8 µM
  relative viability: 0.521
[4]; first compound 0.04 µM
  relative viability: 0.867
[4]; first compound 0.1265 µM
  relative viability: 0.767
[4]; first compound 0.4 µM
  relative viability: 0.849
[4]; first compound 1.265 µM
  relative viability: 0.184
[4]; first compound 4 µM
  relative viability: 0.525
